Assay results taken from patent US8399214B2 (Evonik Degussa GmbH, priority 2005, dated 2013).

Key:
[1] = test system: C. glutamicum M2014 (parent); test: Test tube growth in methionine-free medium, DMDS added directly; conditions: for Optical densities at 600 nm: M2014, 36 hours at 30° C.
Excerpt: M2014 was transformed with plasmid pOM86 (FIG. 9) (SEQ ID NO:8) to yield a “Campbell in” strain. The “Campbell in” strain was then “Cambelled out” to yield a “Campbell out” strain named OM63.

[2] = test system: C. glutamicum OM174 (ΔmetF, ΔmetB, ΔmetY); conditions: DMDS 0.2%, XAD4, 60 hours at 30° C.
Protocol: A test tube experiment was performed with M2014 derivatives that contain different combinations of deletions of metY, metB, and metF. […] The inoculum was approximately 5×10^3 cells per tube. Cells were grown at 30° C. in a platform shaker for 60 hours, and cell densities were measured at OD600.

## CSSC [DMDS, dimethyl disulfide]
[1]; MF + 0.02% DMDS
  Optical densities at 600 nm: 5.5
[1]; MF + 0.04% DMDS
  Optical densities at 600 nm: 5.3
[1]; MF + 0.06% DMDS
  Optical densities at 600 nm: 6.6
[1]; MF + 0.08% DMDS
  Optical densities at 600 nm: 0.0
[1]; MF + 0.1% DMDS
  Optical densities at 600 nm: 0.0
[1]; added directly to liquid cultures
  amount of DMDS tolerated by the cells: less than 0.06%
[1]; added directly to liquid cultures of C. glutamicum
  amount at which DMDS is toxic: greater than 0.06%
[2]
  OD600: 0.0
